Patent US20260078158A1, “COMPOSITIONS COMPRISING CXCL10-DERIVED PEPTIDES AND METHODS OF USE THEREOF” (priority 2022, published 2026)
Where two headings read alike, the source gives them in different places.

Columns and labels:
Enterococcus faecalis = test: microbe, parasite or virus in culture; type: cell-based; conditions: Enterococcus faecalis (2 isolates)
Enterococcus faecium = test: microbe, parasite or virus in culture; type: cell-based; conditions: Enterococcus faecium (3 isolates)
[1] = tested on: Acinetobacter baumannii-calcoaceticus complex; test: microbe, parasite or virus in culture; type: cell-based; conditions: Acinetobacter spp. (5 isolates)
Escherichia coli = test: microbe, parasite or virus in culture; type: cell-based; conditions: Escherichia coli (5 isolates)
[2] = tested on: E. cloacae species complex; test: microbe, parasite or virus in culture; type: cell-based, Enterobacter cloacae; conditions: Enterobacter spp. (5 isolates)
Pseudomonas aeruginosa = test: microbe, parasite or virus in culture; type: cell-based; conditions: Pseudomonas aeruginosa (5 isolates)
Streptococcus pneumoniae = test: microbe, parasite or virus in culture; type: cell-based; conditions: Streptococcus pneumoniae (5 isolates)
Staphylococcus aureus = test: microbe, parasite or virus in culture; type: cell-based; conditions: relative to P194-acetate; Staphylococcus aureus (5 isolates)
Klebsiella pneumoniae = Klebsiella pneumoniae (5 isolates)

Sequence | MIC50 fold change (Enterococcus faecalis; relative to P194-acetate) | MIC50 fold change (Enterococcus faecium; relative to P194-acetate) | MIC50 fold change ([1]; relative to P194-acetate) | MIC50 fold change (Escherichia coli; relative to P194-acetate) | MIC50 fold change ([2]; relative to P194-acetate) | MIC50 fold change (Pseudomonas aeruginosa; relative to P194-acetate) | MIC50 fold change (Streptococcus pneumoniae; relative to P194-acetate) | MIC50 fold change (Staphylococcus aureus) | MIC50 fold change (Klebsiella pneumoniae; relative to P194-acetate) | MIC50 fold change (Enterococcus faecalis; relative to D8-acetate) | MIC50 fold change (Enterococcus faecium; relative to D8-acetate) | MIC50 fold change ([1]; relative to D8-acetate) | MIC50 fold change (Escherichia coli; relative to D8-acetate) | MIC50 fold change ([2]; relative to D8-acetate) | MIC50 fold change (Pseudomonas aeruginosa; relative to D8-acetate) | MIC50 fold change (Klebsiella pneumoniae; relative to D8-acetate) | MIC50 fold change (Streptococcus pneumoniae; relative to D8-acetate)
RAVRCRCI [Peptide P194-T2A] | 4 | 2 | 0.5 | 0.5 | 0.5 | >2 | 2 | 2 | 2 | – | – | – | – | – | – | – | –
RAVRCTCI [Peptide D8-T2A] | – | – | – | – | – | – | – | – | – | 2 | 2 | 2 | 2 | 1 | >2 | 2 | –
RTARCTCI [Peptide D8-V3A] | – | – | – | – | – | – | – | – | – | >4 | 8 | 32 | 16 | >4 | >2 | >8 | –
RTVACTCI [Peptide D8-R4A] | – | – | – | – | – | – | – | – | – | >4 | 8 | >32 | >16 | >4 | >2 | >8 | –
RTVRATCI [Peptide D8-C5A] | – | – | – | – | – | – | – | – | – | >4 | >16 | >32 | >16 | >4 | >2 | >8 | –
RTVRCACI [Peptide D8-T6A] | – | – | – | – | – | – | – | – | – | 1 | 1 | 2 | 1 | 0.5 | 2 | 2 | 1
RTVRCTAI [Peptide D8-C7A] | – | – | – | – | – | – | – | – | – | >4 | 16 | >32 | >16 | >4 | >2 | >8 | –
RTVRCTCA [Peptide D8-I8A] | – | – | – | – | – | – | – | – | – | 4 | 4 | 2 | 4 | 1 | 2 | 4 | –
